Measured values reported in PubChem BioAssay AID248 (DTP/NCI, 2004).
Several values for one entry are separate records, joined by “and”; a condition that tells them apart may be missing. Equal entries are not always repeated. Inconclusive results and toxic doses are left out.

System: L1210 leukemia ip in BDF1 mice, survival T/C
Experiment: NCI In Vivo Anticancer Drug Screen. Data for tumor model L1210 Leukemia (intraperitoneal) in B6D2F1 (BDF1) mice
Settings: endpoint: mean survival time, higher = longer survival
Outline: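 Mice bearing the transplanted tumor received compound or vehicle. Survival of the treated group was divided by that of the vehicle-treated control group to give the ratio.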

[1] = dose: 100.0 mg/kg/injection, schedule: Q01DX001 (ip), vehicle: carboxymethylcellulose (CMC)
[2] = dose: 200.0 mg/kg/injection, schedule: Q01DX001 (ip), vehicle: carboxymethylcellulose (CMC)
[3] = dose: 400.0 mg/kg/injection, schedule: Q01DX001 (ip), vehicle: carboxymethylcellulose (CMC)
[4] = dose: 100.0 mg/kg/injection, schedule: Q01DX001 (ip), vehicle: saline
[5] = dose: 200.0 mg/kg/injection, schedule: Q01DX001 (ip), vehicle: saline
[6] = dose: 400.0 mg/kg/injection, schedule: Q01DX001 (ip), vehicle: saline
[7] = dose: 100.0 mg/kg/injection, schedule: Q04DX003 (ip), vehicle: Klucel (hydroxypropylcellulose) (HPC)
[8] = dose: 50.0 mg/kg/injection, schedule: Q01DX001 (ip), vehicle: Klucel (hydroxypropylcellulose) (HPC)
[9] = dose: 100.0 mg/kg/injection, schedule: Q01DX001 (ip), vehicle: Klucel (hydroxypropylcellulose) (HPC)
[10] = dose: 100.0 mg/kg/injection, schedule: Q04DX002 (ip), vehicle: saline with Tween-80
[11] = dose: 200.0 mg/kg/injection, schedule: Q01DX001 (ip), vehicle: Klucel (hydroxypropylcellulose) (HPC)
[12] = dose: 200.0 mg/kg/injection, schedule: Q04DX002 (ip), vehicle: saline with Tween-80
[13] = dose: 400.0 mg/kg/injection, schedule: Q04DX002 (ip), vehicle: saline with Tween-80
[14] = dose: 100.0 mg/kg/injection, schedule: Q01DX001 (ip), vehicle: saline with Tween-80
[15] = dose: 100.0 mg/kg/injection, schedule: Q01DX009 (ip), vehicle: saline with Tween-80
[16] = dose: 200.0 mg/kg/injection, schedule: Q01DX001 (ip), vehicle: saline with Tween-80
[17] = dose: 200.0 mg/kg/injection, schedule: Q01DX009 (ip), vehicle: saline with Tween-80
[18] = dose: 100.0 mg/kg/injection, schedule: Q01DX009 (ip), vehicle: Klucel (hydroxypropylcellulose) (HPC)

In the case of `CN(C)C(=O)c1ccc[n+](CC(=O)Nc2ccc(Cl)cc2)c1`, the T/C (dose: 100.0 mg/kg/injection, schedule: Q04DX003 (ip), vehicle: saline) is reported as 98 % of control.
In the case of `COc1ccc(OC(=O)Nc2ccc(OC)cc2Cl)cc1`, the T/C (dose: 100.0 mg/kg/injection, schedule: Q04DX002 (ip), vehicle: Klucel (hydroxypropylcellulose) (HPC)) is reported as 96 % of control, the T/C (dose: 200.0 mg/kg/injection, schedule: Q04DX002 (ip), vehicle: Klucel (hydroxypropylcellulose) (HPC)) is reported as 107 % of control and the T/C (dose: 400.0 mg/kg/injection, schedule: Q04DX002 (ip), vehicle: Klucel (hydroxypropylcellulose) (HPC)) is reported as 100 % of control.
With `O=C(OCC1COc2ccccc2O1)C(F)(F)F` (stereo unspecified) the T/C [1] was 95 % of control, the T/C [2] was 93 % of control and the T/C [3] was 98 % of control.
In the case of `O=[N+]([O-])c1ccc(N=C(Cl)c2cc(N3CCOCC3)ccn2)cc1`, the T/C [4] is reported as 94 % of control, the T/C [5] is reported as 94 % of control and the T/C [6] is reported as 95 % of control.
In the case of `Cc1cccc(-c2nc3ncnc(N)c3[nH]2)c1`, the T/C (dose: 6.25 mg/kg/injection, schedule: Q01DX001 (ip), vehicle: saline with Tween-80) is reported as 95 % of control, the T/C (dose: 12.5 mg/kg/injection, schedule: Q01DX001 (ip), vehicle: saline with Tween-80) is reported as 97 % of control and the T/C (dose: 25.0 mg/kg/injection, schedule: Q01DX001 (ip), vehicle: saline with Tween-80) is reported as 101 % of control.
For `CC(=O)OC1CCCCC1N` (stereo unspecified), the T/C (dose: 100.0 mg/kg/injection, schedule: Q04DX002 (ip), vehicle: saline) was 100 % of control and 91 % of control, the T/C (dose: 200.0 mg/kg/injection, schedule: Q04DX002 (ip), vehicle: saline) was 92 % of control and 103 % of control and the T/C (dose: 400.0 mg/kg/injection, schedule: Q04DX002 (ip), vehicle: saline) was 103 % of control and 114 % of control.
With `O=Nc1c(-c2c[nH]c3ccccc23)[nH]c2ccccc12` the T/C (dose: 50.0 mg/kg/injection, schedule: Q01DX001 (ip), vehicle: saline) was 106 % of control and the T/C [4] was 102 % of control.
For `O=C(Nc1ccc(S(=O)(=O)c2ccc(NC(=O)C(F)(F)N3CCOCC3)cc2)cc1)C(F)(F)N1CCOCC1`, the T/C [1] was 103 % of control, the T/C [2] was 97 % of control and the T/C [3] was 103 % of control.
`Clc1ccc(Cl)c(/C=C/c2ccc(Cl)c(Cl)c2)c1` was tested, and the T/C (dose: 1.56 mg/kg/injection, schedule: Q01DX009 (ip), vehicle: Klucel (hydroxypropylcellulose) (HPC)) was 97 % of control, the T/C (dose: 3.12 mg/kg/injection, schedule: Q01DX009 (ip), vehicle: Klucel (hydroxypropylcellulose) (HPC)) was 95 % of control and the T/C (dose: 6.25 mg/kg/injection, schedule: Q01DX009 (ip), vehicle: Klucel (hydroxypropylcellulose) (HPC)) was 92 % of control and 100 % of control. For the same compound, the T/C [7] was 97 % of control.
For `N#CC1SCCCS1`, the T/C [8] was 104 % of control, the T/C [9] was 105 % of control and the T/C [10] was 101 % of control. For the same compound, the T/C [11] was 96 % of control, the T/C [12] was 108 % of control and the T/C [13] was 108 % of control.
`Nc1nc(SN=Nc2ccc(S(N)(=O)=O)cc2)c2[nH]cnc2n1` was tested, and the T/C (dose: 0.16 mg/kg/injection, schedule: Q01DX Z (ip), vehicle: other) was 110 % of control, the T/C (dose: 1.5 mg/kg/injection, schedule: Q04DX003 (ip), vehicle: saline with Tween-80) was 111 % of control and the T/C (dose: 2.0 mg/kg/injection, schedule: Q01DX Z (ip), vehicle: methylcellulose (MC)) was 165 % of control. The T/C (dose: 3.0 mg/kg/injection, schedule: Q01DX Z (ip), vehicle: methylcellulose (MC)) was 154 % of control, the T/C (dose: 5.0 mg/kg/injection, schedule: Q01DX Z (ip), vehicle: other) was 153 % of control and the T/C (dose: 12.0 mg/kg/injection, schedule: Q04DX003 (ip), vehicle: saline with Tween-80) was 155 % of control. The T/C (dose: 17.0 mg/kg/injection, schedule: Q04DX003 (ip), vehicle: saline with Tween-80) was 158 % of control and 159 % of control, the T/C (dose: 20.0 mg/kg/injection, schedule: Q01DX Z (ip), vehicle: methylcellulose (MC)) was 124 % of control and the T/C (dose: 25.0 mg/kg/injection, schedule: Q04DX003 (ip), vehicle: saline with Tween-80) was 151 % of control and 190 % of control. For the same compound, the T/C (dose: 37.0 mg/kg/injection, schedule: Q04DX003 (ip), vehicle: saline with Tween-80) was 155 % of control and 164 % of control, the T/C (dose: 68.0 mg/kg/injection, schedule: Q01DX Z (ip), vehicle: other) was 109 % of control and the T/C (dose: 102.0 mg/kg/injection, schedule: Q01DX Z (ip), vehicle: other) was 102 % of control.
For `O=C(NC(=S)Nc1cc(Cl)ccc1Cl)c1ccc(Cl)cc1Cl`, the T/C [14] was 92 % of control, the T/C [15] was 94 % of control and 97 % of control and the T/C [10] was 87 % of control and 90 % of control. The T/C (dose: 100.0 mg/kg/injection, schedule: Q04DX003 (ip), vehicle: saline with Tween-80) was 97 % of control, the T/C [16] was 94 % of control and the T/C [17] was 93 % of control and 97 % of control. The T/C [12] was 97 % of control and 87 % of control, the T/C (dose: 200.0 mg/kg/injection, schedule: Q04DX003 (ip), vehicle: saline with Tween-80) was 92 % of control and the T/C (dose: 400.0 mg/kg/injection, schedule: Q01DX001 (ip), vehicle: saline with Tween-80) was 94 % of control. The T/C (dose: 400.0 mg/kg/injection, schedule: Q01DX009 (ip), vehicle: saline with Tween-80) was 103 % of control and 105 % of control, the T/C [13] was 93 % of control and 101 % of control and the T/C (dose: 400.0 mg/kg/injection, schedule: Q04DX003 (ip), vehicle: saline with Tween-80) was 95 % of control.
With `O=C1CC(C(=O)Nc2ccccc2)C(c2ccccc2)(c2ccccc2)O1` (stereo unspecified) the T/C [1] was 97 % of control, the T/C [2] was 106 % of control and the T/C [3] was 95 % of control.
For `CC[C@H](CC[C@@H](C)C1CC[C@H]2[C@@H]3CCC4=CC(=O)CC[C@]4(C)[C@H]3CC[C@]12C)C(C)C` (stereo partly specified), the T/C [4] was 98 % of control, the T/C [5] was 95 % of control and the T/C [6] was 97 % of control.
For `C/C=C\C(O)(C(=O)OC)c1ccccc1` (stereo unspecified), the T/C (dose: 100.0 mg/kg/injection, schedule: Q01DX001 (ip), vehicle: other) was 105 % of control, the T/C [4] was 97 % of control and the T/C (dose: 200.0 mg/kg/injection, schedule: Q01DX001 (ip), vehicle: other) was 107 % of control. The T/C [5] was 92 % of control, the T/C (dose: 400.0 mg/kg/injection, schedule: Q01DX001 (ip), vehicle: other) was 107 % of control and the T/C [6] was 92 % of control.
With `CCOC(=O)C(C#N)C1CCCCC1` (stereo unspecified) the T/C (dose: 25.0 mg/kg/injection, schedule: Q01DX009 (ip), vehicle: Klucel (hydroxypropylcellulose) (HPC)) was 109 % of control, the T/C (dose: 50.0 mg/kg/injection, schedule: Q01DX009 (ip), vehicle: Klucel (hydroxypropylcellulose) (HPC)) was 102 % of control and the T/C [14] was 98 % of control. The T/C [18] was 102 % of control, the T/C [7] was 102 % of control and the T/C [16] was 95 % of control. For the same compound, the T/C (dose: 200.0 mg/kg/injection, schedule: Q04DX003 (ip), vehicle: Klucel (hydroxypropylcellulose) (HPC)) was 107 % of control and the T/C (dose: 400.0 mg/kg/injection, schedule: Q04DX003 (ip), vehicle: Klucel (hydroxypropylcellulose) (HPC)) was 100 % of control.
`CCCC/C(COC)=N\N=C(\CCOC)COC` was tested, and the T/C [2] was 94 % of control and the T/C [3] was 94 % of control.
`CC(=O)Nc1ccc(S(N)(=O)=O)cc1` was tested, and the T/C (dose: 50.0 mg/kg/injection, schedule: Q01DX001 (ip), vehicle: carboxymethylcellulose (CMC)) was 95 % of control, the T/C [1] was 101 % of control and the T/C [18] was 103 % of control. The T/C [2] was 95 % of control and the T/C [3] was 97 % of control.
`CC1(CCCc2ccc(N)cc2)N=C(N)N=C(N)N1c1ccccc1` (stereo unspecified) was tested, and the T/C [8] was 106 % of control, the T/C [9] was 112 % of control and the T/C [11] was 110 % of control.
In the case of `O=C1CC(N2CCCCC2)C(=O)N1c1ccccc1` (stereo unspecified), the T/C [10] is reported as 92 % of control and the T/C [12] is reported as 95 % of control.
`CCCc1ccc(O)c(O)c1` was tested, and the T/C (dose: 20.0 mg/kg/injection, schedule: Q01DX001 (ip), vehicle: saline) was 103 % of control, the T/C (dose: 20.0 mg/kg/injection, schedule: Q01DX009 (ip), vehicle: saline) was 105 % of control and the T/C (dose: 40.0 mg/kg/injection, schedule: Q01DX001 (ip), vehicle: saline) was 96 % of control. The T/C (dose: 40.0 mg/kg/injection, schedule: Q01DX009 (ip), vehicle: saline) was 93 % of control and the T/C (dose: 80.0 mg/kg/injection, schedule: Q01DX001 (ip), vehicle: saline) was 92 % of control.
With `O=c1ccn(C2CC(O)C(CO)C2)c(=S)[nH]1` (stereo unspecified) the T/C (dose: 50.0 mg/kg/injection, schedule: Q01DX009 (ip), vehicle: saline with Tween-80) was 103 % of control, the T/C [15] was 107 % of control and the T/C [17] was 93 % of control.
With `CCOP(=O)(OCC)c1cccc(Cl)c1` the T/C (dose: 75.0 mg/kg/injection, schedule: Q01DX001 (ip), vehicle: saline) was 101 % of control.
